Holding throughout (assay): DTP human tumour cell line panel, 48 h
In assay [1] the test system is BT-549.
Assay [2] deals with DU-145.
The subject of assay [3] is EKVX.
Assay [4] has as its system HCT-116.
In assay [5] the test system is Hs-578T.
In assay [6] the test system is KM12.
Assay [7] has as its system MDA-MB-435.
For assay [8], the system named is MDA-N.
Assay [9] has as its system OVCAR-4.
The test system of assay [10] is OVCAR-5.
The subject of assay [11] is PC-3.
Assay [12] concerns RXF 393.
The subject of assay [13] is SF-268.
Assay [14] has as its system SF-295.
Assay [15] relates to UACC-62.
Assay [16] relates to DLD-1.
The test system of assay [17] is HOP-18.
Assay [18] concerns SNB-78.
Assay [19] relates to SR.

This note sets out measurements from ChEMBL document CHEMBL1201862, “PubChem BioAssay data set” (2004).

Each structure is given as a SMILES string.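 Grown in 96-well plates, cells were treated for 48 hours with each compound at five concentrations. Insufficient inhibition: endpoint recorded as highest concentration tested. The concentration for 50% growth inhibition is given as GI50.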 The source made the active and inactive calls. Cut-off read from the data, not from the text of the source: active = GI50 up to about 1.1 µM and inactive = higher.

By GI50 is commonly meant the concentration giving 50% growth inhibition. Consider `CN1C(=O)C(C#N)C2C[C@@]1(C)Oc1ccccc12` (stereo not given in full), for which the GI50 is 64.9 µM (inactive) in assay [1]; > 100 µM (inactive) in assay [2]; > 100 µM (inactive) in assay [3]; > 100 µM (inactive) in assay [4]; > 100 µM (inactive) in assay [5]; > 100 µM (inactive) in assay [6]. The GI50 in assay [7], in assay [8], in assay [9], in [10], in assay [11] and in [12] was > 100 µM (inactive) each time. The GI50 in assay [13], in assay [14] and in assay [15] was > 100 µM (inactive) in each case.
Consider `C=C1CC[C@@H](Br)C(C)(C)[C@]12CCC(C)(O)C(Cl)C2` (stereo not given in full), for which the GI50 is 17.5 µM (inactive) in [16]; 19.1 µM (inactive) in assay [3]; 18.1 µM (inactive) in assay [4]; 18.8 µM (inactive) in assay [17]; 18.2 µM (inactive) in [6]; 19.5 µM (inactive) in [10]. The GI50 is 17.5 µM (inactive) in assay [12]; 17.4 µM (inactive) in assay [13]; 20.6 µM (inactive) in [14]; 52.5 µM (inactive) in [18]; 18.5 µM (inactive) in [15].
Consider `CSCCCNC(=O)c1csc(-c2csc(CCNC(=O)CNC(=O)CNC(=O)CNC(=O)OC(C)(C)C)n2)n1`, for which the GI50 in assay [1], in assay [2], in assay [3], in [4], in assay [5] and in assay [6] was > 100 µM (inactive) throughout. In addition, the GI50 in [7], in assay [8], in [9], in assay [10], in assay [11] and in assay [12] was > 100 µM (inactive) throughout. In addition, the GI50 in [13], in [14] and in assay [15] was > 100 µM (inactive) each time.
For `O=c1oc2ccccc2n1P(=O)(Oc1ccc(Cl)cc1)n1c(=O)oc2ccccc21`, the GI50 is > 100 µM (inactive) in [16]; > 100 µM (inactive) in assay [3]; > 100 µM (inactive) in assay [4]; > 100 µM (inactive) in [17]; 85.5 µM (inactive) in assay [6]; > 100 µM (inactive) in assay [9]. The GI50 in assay [10] was > 100 µM (inactive); in [12], > 100 µM (inactive); in assay [13], > 100 µM (inactive); in assay [14] it was 93.8 µM (inactive); in assay [18] it was > 100 µM (inactive); in assay [19], > 100 µM (inactive). For the same compound, the GI50 in assay [15] is 61 µM (inactive).
`CC(=O)OCCOCn1cc(C=O)c2ccccc21`: the GI50 in [1], in assay [2], in assay [3], in assay [4], in assay [5] and in [6] was > 100 µM (inactive) throughout. The GI50 in [7] is > 100 µM (inactive); in [8], > 100 µM (inactive); in assay [10] it was 67.5 µM (inactive); in assay [11], > 100 µM (inactive); in assay [12], > 100 µM (inactive); in assay [13] it was > 100 µM (inactive). The GI50 in assay [14], in assay [19] and in [15] was > 100 µM (inactive) in each case.
Turning to `CC(=O)/N=C1\N/C(=C/c2cc([N+](=O)[O-])ccc2O)CN1C`, the GI50 in assay [1], in assay [2], in assay [3], in assay [4], in assay [6] and in assay [7] was > 100 µM (inactive) each time. Further, the GI50 in assay [8], in assay [9], in assay [10], in assay [11], in [14] and in assay [15] was > 100 µM (inactive) throughout.
Turning to `Clc1cc(N/N=C(\c2ccccc2)c2ccccn2)ncn1`, the GI50 in assay [1] was 4.21 µM (inactive); in assay [2], 0.5 µM (active); in assay [3], 0.0215 µM (active); in [4], 0.0277 µM (active); in assay [5], 3.38 µM (inactive); in assay [6], 1.22 µM (inactive). Further, the GI50 in [7] was 1.02 µM (active); in [8] it was 3.33 µM (inactive); in [9] it was 10.9 µM (inactive); in [10], 0.361 µM (active); in [11] it was 0.0728 µM (active); in assay [12], 5.08 µM (inactive). Further, the GI50 was 0.489 µM (active) in assay [13], 0.502 µM (active) in assay [14], 0.0942 µM (active) in assay [19] and 0.308 µM (active) in assay [15].
Consider `N#Cc1c(N)c2c(c(-c3ccccc3)c1-c1ccccc1)C(=O)N(NC(=S)Nc1ccccc1)C2=O`, for which the GI50 in [1] was 89.5 µM (inactive); in assay [2] it was > 100 µM (inactive); in [3], > 100 µM (inactive); in assay [4] it was 56.1 µM (inactive); in assay [5], 39.4 µM (inactive); in assay [6] it was 75.7 µM (inactive). Besides, the GI50 is > 100 µM (inactive) in assay [7]; 51.1 µM (inactive) in [9]; 35.2 µM (inactive) in [10]; 30.5 µM (inactive) in [11]; 16.9 µM (inactive) in assay [12]; > 100 µM (inactive) in assay [13]. Further, the GI50 in [14] is 68.5 µM (inactive); in assay [19], 68.7 µM (inactive); in [15] it was 73.8 µM (inactive).
As to `CC(=O)O[C@H]1CC[C@H]2[C@@H]3CCC(C(C)=O)[C@H](C(=O)O)[C@H]3CC[C@]12C` (stereo not given in full), the GI50 in [1], in [3], in [5], in assay [6], in assay [7] and in assay [9] was > 100 µM (inactive) each time. In addition, the GI50 in assay [10], in assay [11], in assay [12], in assay [13], in assay [14] and in assay [19] was > 100 µM (inactive) throughout. Further, in assay [15], the GI50 was > 100 µM (inactive).
`O=C1OC(CN2CCOCC2)CN1/N=C/c1ccc([N+](=O)[O-])o1` (stereo not given) [FURALTADONE]: the GI50 was 86.1 µM (inactive) in [1]; 73.3 µM (inactive) in [2]; 63.7 µM (inactive) in [3]; 19.1 µM (inactive) in [4]; 54.6 µM (inactive) in [5]; 18.5 µM (inactive) in [6]. The GI50 in [7] was 18 µM (inactive); in assay [9] it was 45.5 µM (inactive); in assay [10], 61.5 µM (inactive); in assay [11] it was 54.2 µM (inactive); in assay [13] it was 60.3 µM (inactive); in assay [14] it was 34.9 µM (inactive). For the same compound, the GI50 in [19] was 36.8 µM (inactive); in assay [15], 34 µM (inactive).
For `CCOc1ncn(-c2ccc(NC(=S)Nc3cccc(O)c3)cc2)n1`, the GI50 in assay [1], in [2], in [3], in [4], in [6] and in [7] was > 100 µM (inactive) each time. Moreover, the GI50 in [8], in assay [9], in [10], in [11], in [13] and in [14] was > 100 µM (inactive) throughout. Moreover, the GI50 in assay [19] and in [15] was > 100 µM (inactive) in each case.
In the case of `CCCCC(CC)C(=O)Oc1ccc(C(=O)c2ccccc2)c(O)c1` (stereo not given), the GI50 was 39.1 µM (inactive) in [1]; 57 µM (inactive) in [2]; 35.6 µM (inactive) in assay [3]; 43.3 µM (inactive) in assay [4]; 20.6 µM (inactive) in assay [5]; 15.4 µM (inactive) in [6]. The GI50 was 35.8 µM (inactive) in [7]; 41.4 µM (inactive) in [8]; 31 µM (inactive) in assay [9]; 38.5 µM (inactive) in assay [10]; 51.5 µM (inactive) in [11]; 49.8 µM (inactive) in [12]. In addition, the GI50 is 34.5 µM (inactive) in assay [13], 29.4 µM (inactive) in [14] and 32 µM (inactive) in assay [15].
With `COc1cc(OC)cc(Oc2nc3cc(F)c(F)cc3nc2-c2ccccc2)c1`, the GI50 in [1], in [2], in [3], in assay [4], in assay [5] and in [6] was > 100 µM (inactive) throughout. The GI50 in assay [7], in [8], in assay [9], in assay [10], in assay [11] and in [12] was > 100 µM (inactive) throughout. Moreover, the GI50 in assay [13], in assay [14], in [19] and in [15] was > 100 µM (inactive) in each case.
For `CC12CCC(=O)N1c1cnccc1N2` (stereo not given), the GI50 in assay [16], in assay [3], in assay [4], in assay [6], in assay [9] and in assay [10] was > 100 µM (inactive) throughout. The GI50 in [13], in [14], in assay [18], in assay [19] and in assay [15] was > 100 µM (inactive) each time.
